Source: US20200046869A1, “USE OF ZINC TREATED PRECIPITATED CALCIUM CARBONATE IN HYGIENIC PRODUCTS” (Omya International AG, priority 2017, published 2020)

Tests used:
[1] = test system: Aerobe bacteria (TSA plates); experiment: Plate count of aerobe total viable count in zinc containing powders; assay type: cell-based; details: powder in disruption buffer, 48 hours at 30° C., detection limit 100 cfu/g
Experimental: (§1) The microbial contamination (bacterial and fungi growth) of three different zinc containing powder samples was determined by the plate count method (spread count) according to the following procedure: 1 g of the respective powder and 9 ml sterile disruption buffer (DB) were weighed into a sterile 50 ml test tube (Greiner) under aseptic conditions using an autoclaved disposable spatula (VWR) in order to obtain suspensions of the zinc containing powder samples. To detach the microorganisms from the zinc containing powders samples, the suspensions were shaken on a vortex for 60 sec. at 2500 rpm before being put on a shaker for 30 minutes at motor setting 1400 (at room temperature, i.e. 21° C.). The sample to be analyzed was appropriately diluted and a defined volume no greater than 0.1 ml was spread over the surface of an agar plate using a sterile glass/plastic spreader. The agar plates were then incubated upside down (condensed water) for a defined period of time at a defined temperature. The sample to be analyzed was diluted 1:10 in PBS and 100 μl of the dilution was spread onto the TSA plate which was incubated for 48 hours at 30° C. The plates were evaluated by counting the grown colonies, thereby taking into account that only plates containing between 30-300 colonies have a high statistical significance. […]

Fungi = experiment: Plate count of fungal growth in zinc containing powders; assay type: cell-based; details: powder in disruption buffer, Sabouraud-Glucose agar, 7 days at 25° C.; detection limit 10 cfu/g
Experimental: as §1, with “dilution were” for “dilution was”, “the” for “the TSA”, “for 7 days” for “for 48 hours”, “at 25°” for “at 30°”

| Compound | TVC Aerobe [1] | TVC Fungi (Fungi) |
| --- | --- | --- |
| O=C([O-])[O-].[Zn+2] [ZnCaCO3, ZnCO3] | <100 cfu/g | <10 cfu/g |
| [O]=[Zn] [ZnO] | <100 cfu/g | <10 cfu/g |
